{"source": "patent US11352371B2", "about": "“Thienopyrimidine derivatives as ACC inhibitors and uses thereof” (Gilead Sciences, Inc., priority 2019, dated 2022)", "key": {"HepG2 cells": {"tested_on": "HepG2 cells", "test": "In vitro De Novo Lipogenesis (DNL) assay, 13C-acetate incorporation into palmitic acid", "type": "cell-based", "settings": "Homo sapiens, 1 hour preincubation, 24 hours with 10 mM 13C-labeled acetate", "method": "De Novo Lipogenesis (DNL) was measured in vitro in HepG2 cells by quantifying the incorporation of ^13C-labeled acetate into palmitic acid.\nHepG2 cells were plated in growth medium (DMEM (Corning cat #15-018-CM) supplemented with 10% FBS (HyClone cat #SH30071-03), and 1× penicillin, streptomycin, glutamine (Corning cat #30-009-CI)) at 10,000 cells/well in a 384-well cell culture-treated plate (Greiner cat #781091). The cells were then incubated overnight at 37° C., 5% CO2. The next day, the cells were washed twice with sterile DPBS (Corning cat #21-031-CM) and the culture medium was changed to fresh growth medium. The compounds of interest were dosed to cells, followed by a 1 hour incubation at 37° C., 5% CO2. ^13C-labeled acetate (Sigma-Aldrich cat #279315-1G) was added to the culture medium at a concentration of 10 mM and the cells were incubated for 24 hours at 37° C., 5% CO2.\nIn order to analyze the lipid content of the HepG2 cells, the culture medium was removed and the cells were lysed by adding 30 μL of 0.1 M NaOH. After 5 minutes of incubation at room temperature, 15 μL of cell lysate was transferred to a 384-well deep-well plate (Sigma-Aldrich cat #BR701355-48EA) containing 15 μL of 7.3% KOH in ethanol and mixed. This plate was sealed and incubated at 70° C. for 4 hours to hydrolyze the lipids to free fatty acids. 100 μL of acetonitrile was then added and the plate was spun at 3,700 g for 20 minutes to separate the organic and aqueous phases. 50 μL from the top (organic) phase was transferred to a new 384-well plate (NUNC cat #264573) and the samples were analyzed by mass spectrometry using a RapidFire coupled to a QTOF mass spectrometer. The sum of the area under curve (AUC) for palmitate containing 3 to 7 ^13C was normalized with the AUC of oleate and plotted against compound concentration to determine the potency of ACC inhibitors. […]"}, "[1]": {"test": "Rat liver/plasma ratio determination", "type": "in vivo, male Sprague-Dawley (SD) rats", "settings": "male SD rats, single oral dose 5 mg/kg or 10 mg/kg; for L/P Ratio (2 h): liver to plasma concentration 2 hours after dosing; for L/P Ratio (24 h): liver to plasma concentration 24 hours after dosing", "method": "Liver to plasma (L/P) ratios of certain example compounds were determined in male Sprague-Dawley (SD) rats 2 hours and 24 hours after their administration.\nThe in vivo phases of the rat L/P ratio determinations for example compounds were conducted at Covance Laboratories (Madison, Wis.) or Charles River Laboratories (Worcester, Wash.). Animals were housed and handled in accordance with the Guide for the Care and Use of Laboratory Animals, Institute of Laboratory Animal Resources. The protocols were reviewed and approved by Institutional Animal Care and Use Committees (IACUC). Male Sprague-Dawley (SD) rats weighing approximately 300 g were fasted overnight prior to dosing and up to 4 hours after dosing. Each example compound was dosed at a single dose at 5 mg/kg or 10 mg/kg orally by gavage to male SD rats (n=3 rats/group). The aqueous formulation contained ethyl alcohol and polyethylene glycol 300. Approximately 100 μL plasma and 0.5 g liver samples were collected from each animal either 2 hours or 24 hours after dosing. The liver samples were homogenized by hard tissue homogenizer probes (Omni International, Kennesaw, Ga.) with 4× extraction buffer. For LC-MS/MS analysis, plasma and liver samples were prepared through protein precipitation extraction and analyzed on a Scitex API 5500 or 6500 LC-MS/MS instrument (Applied Biosystems, Foster City, Calif.). Analyte was eluted on a 1.7 μm 50×2.1 mm Acquity UPLC BEH C18 column (Waters, Milford, Mass.) using mobile phase containing 0.1% formic acid and a linear gradient from 55% to 95% acetonitrile at a flow rate of 800 μL/min. A liver/plasma ratio for each compound was calculated using the liver and plasma concentrations at the corresponding time point (2 hours or 24 hours). Noncompartmental pharmacokinetic parameters were calculated using Phoenix 32 (Pharsight Corporation, Mountain View, Calif.).\nTo assess the liver loading potential of the compounds, rat liver/plasma ratios (Rat L/P Ratio) values were determined for example compounds and are listed below in Table 1 for 2 hour and 24 hour timepoints (Rat L/P Ratio (2h/24h))."}}}
{"smiles": "Cc1c(-c2ncco2)sc2c1c(=O)n(C(C)(C)C(=O)NS(=O)(=O)C1(C)CC1)c(=O)n2C[C@H](O[C@@H]1C[C@H]2CC[C@@H](C1)O2)c1cc(F)ccc1OC(F)F", "note": "[Example 6, 2-(1-((R)-2-(((1R,3s,5S)-8-oxabicyclo[3.2.1]octan-3-yl)oxy)-2-(2-(difluoromethoxy)-5-fluorophenyl)ethyl)-5-methyl-6-(oxazol-2-yl)-2,4-dioxo-1,4-dihydrothieno[2,3-d]pyrimidin-3(2H)-yl)-2-methyl-N-((1-methylcyclopropyl)sulfonyl)propanamide]", "values": [{"measurement": "EC50", "setting": "HepG2 cells", "value": 4.5, "unit": "nM"}, {"measurement": "L/P Ratio (2 h)", "setting": "[1]", "value": 442}, {"measurement": "L/P Ratio (24 h)", "setting": "[1]", "value": 1106}]}
{"smiles": "COc1ccccc1[C@H](Cn1c(=O)n(C2(C(=O)NS(=O)(=O)C3(C)CC3)CC2)c(=O)c2c(C)c(-c3ncco3)sc21)O[C@@H]1C[C@H]2CC[C@@H](C1)O2", "note": "[Example 12, 1-(1-((R)-2-(((1R,3s,5S)-8-oxabicyclo[3.2.1]octan-3-yl)oxy)-2-(2-methoxyphenyl)ethyl)-5-methyl-6-(oxazol-2-yl)-2,4-dioxo-1,4-dihydrothieno[2,3-d]pyrimidin-3(2H)-yl)-N-((1-methylcyclopropyl)sulfonyl)cyclopropane-1-carboxamide]", "values": [{"measurement": "EC50", "setting": "HepG2 cells", "value": 1.7, "unit": "nM"}, {"measurement": "L/P Ratio (2 h)", "setting": "[1]", "value": 145}, {"measurement": "L/P Ratio (24 h)", "setting": "[1]", "value": 136}]}
{"smiles": "COc1ccc(F)cc1[C@H](Cn1c(=O)n(C(C)(C)C(=O)NS(=O)(=O)C2(C)CC2)c(=O)c2c(C)c(-n3nccn3)sc21)O[C@@H]1C[C@H]2CC[C@@H](C1)O2", "note": "[Example 20, 2-(1-((R)-2-(((1R,3s,5S)-8-oxabicyclo[3.2.1]octan-3-yl)oxy)-2-(5-fluoro-2-methoxyphenyl)ethyl)-5-methyl-2,4-dioxo-6-(2H-1,2,3-triazol-2-yl)-1,4-dihydrothieno[2,3-d]pyrimidin-3(2H)-yl)-2-methyl-N-((1-methylcyclopropyl)sulfonyl)propanamide]", "values": [{"measurement": "EC50", "setting": "HepG2 cells", "value": 0.3, "unit": "nM"}, {"measurement": "L/P Ratio (2 h)", "setting": "[1]", "value": 2515}, {"measurement": "L/P Ratio (24 h)", "setting": "[1]", "value": 2914}]}
